Values after ≈ are worked out from the molar mass of the structure shown.
Details: buffer; pH 7.4; 200.0 µM

| SMILES | solubility kinetic [µg/mL] |
| --- | --- |
| O=C(/C=C/c1ccccc1[N+](=O)[O-])N1CCOCC1 | > 39.3 |
| Oc1c(C(c2ccccn2)N2CCOCC2)ccc2cccnc12 (stereo unspecified) | 1.7 (≈ 5.29 µM) |
| Cc1ccc2nc(-c3cccnc3)c(Nc3ccccc3C)n2c1 | 2.2 (≈ 7 µM) |
| Cc1ccc(S(=O)(=O)N2CCN3CCCC3C2)cc1 (stereo unspecified) | > 42.1 |
| CC(C)COc1ccc(C(=O)N2C(=O)c3ccc(N)cc3C2=O)cc1 | 1.8 (≈ 5.32 µM) |
| CCCNC(=O)c1ccc(C)c(NC(=O)C2=C(C)OCCS2)c1 | > 50.2 |
| CCN(C(=O)COC(=O)c1ccc2c(c1)OCO2)c1ccc(F)cc1 | 10.4 (≈ 30.1 µM) |
| Cc1ccc(NP(=O)(c2ccccc2)c2nc3ccccc3s2)cc1 (stereo unspecified) | 2.2 (≈ 6.04 µM) |
| COc1cc(OC)cc(C(=O)NC(C(=O)NCCc2ccccn2)C(C)C)c1 (stereo unspecified) | > 57.8 |
| O=C(CSc1ccccn1)Nc1nonc1[N+](=O)[O-] | > 42.2 |
| CC(=O)c1cccc(NC(=O)N2CCOCC2)c1 | > 37.2 |
| O=c1c2oc3nc4c(cc3c2ncn1CCCc1ccccc1)CCCC4 | 1.3 (≈ 3.62 µM) |
| CCCNC(=O)c1ccc(COc2cccc3ccccc23)o1 | 15.8 (≈ 51.1 µM) |
| O=C(Nc1ccccc1)OC1CCCCc2cccnc21 (stereo unspecified) | 41.6 (≈ 147 µM) |
| COc1ccc(NC(=O)COC(=O)CCc2nc3ccccc3c(=O)[nH]2)cc1Cl | 59.7 (≈ 144 µM) |
| O=C(COC(=O)COc1ccc(Cl)cc1Cl)NC1CC1 | > 47.7 |
| Cc1noc(C)c1COC(=O)c1csc2c1CCCC2 | 8.3 (≈ 28.5 µM) |
| O=C(CCN1C(=O)c2ccccc2C1=O)NCc1ccccc1 | > 46.3 |
| CC(=O)NC(Cc1ccc(O)cc1)C(=O)NN (stereo unspecified) | > 35.6 |
| S=C(NCCc1cccc(Cl)c1)NCc1ccccc1 | 14.9 (≈ 48.9 µM) |
| CN1CCN(c2oc(Cc3cccc4ccccc34)nc2C#N)CC1 | 43.5 (≈ 131 µM) |
| CCCS(=O)(=O)N1CCCC(C(=O)c2cccc(Cl)c2)C1 (stereo unspecified) | 44.7 (≈ 136 µM) |

| SMILES | solubility kinetic [µg/mL] |
| --- | --- |
| COc1ccc(NC(=O)C2CCCN(c3ncccn3)C2)cc1 (stereo unspecified) | 14.5 (≈ 46.4 µM) |
| COc1ccccc1-n1cc(-c2ccccc2)[nH]c1=S | 3 (≈ 10.6 µM) |
| CCC1(CC)N=C(c2ccccc2)C(=S)N1 | > 34.9 |
| CCC1(c2ccc(Cl)cc2)NC(=O)N(CC(=O)N2CCN(C(=O)c3ccco3)CC2)C1=O (stereo unspecified) | > 68.8 |
| Cc1ccc2nc(-c3ccc(-c4ccccn4)s3)cn2c1 | 3.2 (≈ 11 µM) |
| O=C(Nc1ccccc1Cl)c1ccc(-c2ccccn2)s1 | 0.8 (≈ 2.54 µM) |
| O=C(CN1C(=O)NC2(CCCCC2)C1=O)N1CCc2ccccc2C1 | > 51.2 |
| CC(C)CC(=O)NC1(C(F)(F)F)NC(=O)N(c2ccccc2)C1=O (stereo unspecified) | 45.8 (≈ 133 µM) |
| Cc1ccc(C)c(S(=O)(=O)N2CCN(c3ncnc4sccc34)CC2)c1 | 5.6 (≈ 14.4 µM) |
| CC(NC(=O)c1ccc(Br)o1)C1CCCO1 (stereo unspecified) | > 43.2 |
| COc1ccc(CCNC(=O)CCNC(=O)c2ccco2)cc1 | > 47.5 |
| CCN1CCN(C(=S)NC(=O)c2cccs2)CC1 | > 42.5 |
| CNc1nccc(-c2ccc(Cl)cc2)c1C#N | 1.5 (≈ 6.16 µM) |
| O=C(OCC(=O)N1CCCC1=O)c1ccc(O)cc1O | > 41.9 |
| NC(=O)NC(=O)C(Nc1ccc2c(c1)CCC2)c1ccccc1 (stereo unspecified) | 7.9 (≈ 25.5 µM) |
| Cc1cccc(NC(=S)N2CCCCCC2)c1C | > 39.4 |
| Cc1ccc(S(=O)(=O)N2CCCCC2C(=O)Nc2ccc(N(C)C)cc2)cc1 (stereo unspecified) | 5.7 (≈ 14.2 µM) |
| Cc1ccnc(N2CCC(C(=O)NCc3ccc(F)cc3)CC2)n1 | 16.7 (≈ 50.9 µM) |
| Cc1cccc(C)c1NC(=O)CN(C)C(=O)Cn1c(=O)cnc2ccccc21 | 52.6 (≈ 139 µM) |
| O=S(=O)(NC(=S)Nc1ccccc1)c1ccc(F)cc1 | > 46.6 |
| O=C(c1cc(-c2ccc(O)cc2)on1)N1CCCC1 | > 38.7 |
| O=C(CN(c1ccccc1Cl)S(=O)(=O)c1ccccc1)NCc1ccccc1 | 18.7 (≈ 45.1 µM) |

| SMILES | solubility kinetic [µg/mL] |
| --- | --- |
| CC(=O)NC1c2ccccc2C(=O)N1Cc1ccccc1 (stereo unspecified) | 39.9 (≈ 142 µM) |
| Cc1c(C(=O)C(=O)N2c3ccccc3CC2C)c2ccccc2n1C (stereo unspecified) | 1.6 (≈ 4.81 µM) |
| CCNC(=O)CN1C(=O)NC2(CCOc3ccccc32)C1=O (stereo unspecified) | > 45.5 |
| O=C(CCNC(=O)c1ccccc1)NCc1ccccc1F | > 45 |
| COCCCNC(=O)c1cc2cc(Br)ccc2oc1=O | 4.4 (≈ 12.9 µM) |
| CN(C)c1cccc(NC(=O)c2cccc3ccccc23)c1 | 6.1 (≈ 21 µM) |
| CCN(CC)CC(O)CCCCCCCCC(=O)OC.Cl (stereo unspecified) | > 48.6 |
| O=C(NCc1ccco1)/C(=C/c1ccco1)NC(=O)c1ccccc1 | 41.5 (≈ 123 µM) |
| O=[N+]([O-])c1cccc(S(=O)(=O)N2CCc3ccccc3C2)c1 | < 0.3 |
| O=C(NCc1csc(-c2cccs2)n1)C1CC1 | 34.3 (≈ 130 µM) |
| Cc1ccc(S(=O)(=O)NCCC(=O)NCCc2ccc(S(N)(=O)=O)cc2)cc1C | > 65.9 |
| N#Cc1ccccc1OCC(=O)NC(=O)NCc1ccco1 | 7.4 (≈ 24.7 µM) |
| COc1ccccc1NS(=O)(=O)c1ccc2oc(N)nc2c1 | > 47.9 |
| COc1ccc(CNC(=O)CC(C)c2ccccc2)cc1 (stereo unspecified) | 36.9 (≈ 130 µM) |
| CC(c1ccccc1)n1c(S(=O)(=O)O)nc2ccccc21 (stereo unspecified) | 43.7 (≈ 145 µM) |
| CN1CCN(c2c(F)cc3c(=O)c(C(=O)[O-])cn4c3c2OCN4C)CC1 | > 54.2 |
| Cc1ccc(NC(=O)NC(=O)COc2c(F)c(F)cc(F)c2F)c(C)c1 | 20.5 (≈ 55.4 µM) |
| Cc1cccc(NC(=O)CNC(=O)c2ccc3nc[nH]c3c2)c1C | > 48.4 |
| CCOC(=O)N1CCN(C(=O)CCc2ccccc2)CC1 | > 43.6 |
| CCN1CCC(N(C)C2CCCCC2)CC1 | 24 (≈ 107 µM) |
| COc1cccc(NC(=O)CSc2nnc(-c3cccnc3)o2)c1 | > 51.4 |
| N#CCCN(Cc1ccccc1)C(=O)Nc1ccc2c(c1)CCO2 | 21.7 (≈ 67.5 µM) |

| SMILES | solubility kinetic [µg/mL] |
| --- | --- |
| O=C(CC1SC(N2CCOCC2)=NC1=O)Nc1ccc(Cl)c(C(F)(F)F)c1 (stereo unspecified) | 4.4 (≈ 10.4 µM) |
| Cc1ccc(C(=O)O)c(C(=O)Nc2nc3ccccc3s2)c1 | > 46.9 |
| CC(=O)NN1CCc2cc3ccc(C)cc3nc21 | > 36.2 |
| N/C(=N\OC(=O)c1ccc(Cl)c([N+](=O)[O-])c1)c1ccccn1 | 2.7 (≈ 8.42 µM) |
| CC(=O)c1cccc(OCC(=O)NC2CCCCCC2)c1 | > 43.4 |
| O=c1o[nH]c(-c2ccccc2)c1-c1ccccc1 | 35 (≈ 148 µM) |
| COc1ccc(CCNc2ncnc3c2c(C)c(C)n3CCO)cc1OC | 53.8 (≈ 145 µM) |
| CCN(CC)c1ccc(NC(=O)Nc2ccccc2)cc1 | 4.1 (≈ 14.5 µM) |
| O=C(COC(=O)C1=COCCO1)Nc1cc(Cl)c(Cl)cc1Cl | 5.3 (≈ 14.5 µM) |
| CCCc1nnc(SCC(=O)N(CC)CC)n1CC1CCCO1 (stereo unspecified) | > 51.1 |
| COc1ccc(N2C(=O)C(F)(F)C2c2ccc(C)cc2)cc1OC (stereo unspecified) | < 0.7 |
| O=C(O)c1ccc(S(=O)(=O)NCc2ccc3c(c2)OCO3)cc1 | > 50.3 |
| CC1CCCC(NC(=O)COC(=O)CCC(=O)c2cccs2)C1C (stereo unspecified) | > 52.7 |
| CC(=O)N1Cc2ccccc2CC1C(=O)N1CCN(c2ccccc2)CC1 (stereo unspecified) | 43.5 (≈ 120 µM) |
| Cc1cccc(NC(=O)C(C)C(=O)c2ccccc2)c1 (stereo unspecified) | 8.5 (≈ 31.8 µM) |
| COc1ccc(CNc2nc3ccc(C)cc3s2)c(OC)c1OC | 15.1 (≈ 43.8 µM) |
| C=CCNC(=O)COc1ccc(Oc2ccccc2)cc1 | > 42.5 |
| O=S(=O)(NCc1cccnc1)c1ccc(Cl)c2ccccc12 | > 49.9 |
| COCCNC(=S)N(c1ccccc1)C(C)C | > 37.9 |
| OC(CN1CCOCC1)Cn1cnc2ccccc21 (stereo unspecified) | > 39.2 |

From PubChem BioAssay AID1996
